The target in one assay is T1, GST-Tip47 (Homo sapiens, UniProt O60664, I56V/V275A).
T1 construct: Full-length Tip47 cDNA was cloned into the pGEX-4T-1; made in house; host or cells: E. coli BL-21
T1 sequence (O60664 1-434 I56V/V275A): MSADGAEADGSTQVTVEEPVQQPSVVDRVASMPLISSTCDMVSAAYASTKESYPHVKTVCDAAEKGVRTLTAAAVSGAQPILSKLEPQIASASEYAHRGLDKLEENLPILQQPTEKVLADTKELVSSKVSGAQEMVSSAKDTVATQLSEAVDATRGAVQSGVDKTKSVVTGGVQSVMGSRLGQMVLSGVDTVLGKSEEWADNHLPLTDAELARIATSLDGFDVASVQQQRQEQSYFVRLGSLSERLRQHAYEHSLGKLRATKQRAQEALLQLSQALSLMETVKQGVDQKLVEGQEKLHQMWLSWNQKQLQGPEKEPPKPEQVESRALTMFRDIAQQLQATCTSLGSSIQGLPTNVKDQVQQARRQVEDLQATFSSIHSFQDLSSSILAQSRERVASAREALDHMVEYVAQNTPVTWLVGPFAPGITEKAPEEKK
Description: Binding of tritiated compound to GST-Tip47 immobilized on anti-GST Protein A Sepharose, scintillation counting. As to conditions: 2 μM compound, 1 hour room temperature, TBS pH 8.0, FIG. 1A. Here is the method:
2 μM 3-(3,5-ditritium-4-azidophenyl)-5-(3-chloro-thiophen-2-yl)-[1,2,4]-oxadiazole (Example 3) was added to either Protein A Sepharose only, Protein A Sepharose plus anti-GST antibody, anti-GST/Protein A Sepharose plus GST only, or anti-GST/Protein A Sepharose plus GST-Tip47. After TBS washes, eluate was counted on a scintillation counter.
Full-length Tip47 cDNA was cloned into the pGEX-4T-1, a glutathione S-transferase (GST) gene fusion system (Amersham, Piscataway, N.J.) using standard methods. Briefly, PCR primers to the 5′ and 3′ region of the gene were designed to contain restriction sites that allowed for the in frame cloning of Tip47 into the pGEX-4T-1 vector. Subsequent to sequence verification, the pGEX-Tip47 construct was transformed into the E.Coli BL-21 strain.
In order to perform binding studies on Tip47, GST-Tip47 was immobilized on Sepharose. To begin, 10 μg of anti-GST antibody (cat. # sc-459, rabbit polyclonal, Santa Cruz Biotechnology, Santa Cruz, Calif.) was incubated with 20 μl of protein A Sepharose (Zymed, South San Francisco, Calif.), in TBS (pH 8.0), total volume 200 μl, for 1 hour at room temperature. Beads were washed 3 times with TBS (pH 8.0). […] Eluates were added to 5 ml of scintillation cocktail and counted using ^3H protocol. […]

The target of another assay is T2, Tip47 (Homo sapiens, UniProt O60664, I56V/V275A).
T2 construct: This supernatant is T47D cytosol; endogenous in cells; host or cells: T47D breast cancer cells
T2 sequence (O60664 1-434 I56V/V275A): T1 sequence (O60664 1-434 I56V/V275A)
The assay is described as follows: Photolabeling of T47D cytosol, immunoprecipitation with anti-Tip47, SDS-PAGE and autoradiography. As to conditions: T47D cytosol labeled with 20 nM compound, UV 254 nm, anti-fibronectin as control, FIG. 1B. The assay is classed as binding. Here is the method:
T47D cytosol was labeled with 20 nM 3-(3,5-ditritium-4-azidophenyl)-5-(3-chloro-thiophen-2-yl)-[1,2,4]-oxadiazole (Example 3) and immunoprecipitated with anti-fibronectin (as a control) or anti-Tip47. The immunoprecipitated complex was subject to SDS-PAGE and autoradiography.
For immunoprecipitations, T47D cells were first washed in PBS and then resuspended in CLB Buffer (10 mM HEPES, 10 mM NaCl, 1 mM KH2PO4, 5 mM NaHCO3, 1 mM CaCl2, 0.5 mM MgCl2, 5 mM EDTA) plus 0.1% protease inhibitor cocktail (Sigma, St. Louis, Mo.). Cells were allowed to swell in 5 minutes at room temperature and then were homogenized in a tight fitting Dounce homogenizer with 50 strokes. Lysate was spun 2,200×g, 5 minutes, at 4° C. The supernatant was then spun at 100,000×g, 40 minutes at 4° C. This resulting supernatant was called T47D cytosol. Protein concentration determined by the D/C Protein Assay (Bio-Rad, Hercules, Calif.).
20 riM 3-(3,5-ditritium-4-azidophenyl)-5-(3-chloro-thiophen-2-yl)-[1,2,4]-oxadiazole (Example 3) (stock is 20 μM, 1 mCi/ml, 50 Ci/mmol) was added to 1 mg T47D cytosol in 1 ml CLB Buffer and incubated, rocking, for 30 minutes at room temperature. Lysates were then exposed to a Short Wave UV Source (254 nm) for 10 minutes.
Labeled lysates were pre-cleared with 50 μl solution of Protein A Sepharose (Zymed, South San Francisco, Calif.) for 2 hours at 4° C. […]

The target in another assay is T3, Tail Interacting Protein (Homo sapiens, UniProt O60664, I56V/V275A).
T3 construct: This supernatant is T47D cytosol; endogenous in cells; host or cells: T47D breast cancer cells
T3 sequence (O60664 1-434 I56V/V275A): T1 sequence (O60664 1-434 I56V/V275A)
The assay is described as follows: Photo-affinity radiolabeling of T47D cytosol, two-dimensional gel and autoradiography. The assay is classed as binding. As to conditions: 200 nM compound, 300 μg T47D cytosol, UV 254 nm 10 minutes. How it is done: Isolation of Tail Interacting Protein from Cell Extracts by Photo-affinity Radiolabeling: T47D breast cancer cell line was grown in RPMI 1640 medium containing 25 mM Hepes and L-glutamine (Gibco) supplemented with 10% FCS and penicillin/streptomycin. 8×10^6 T47D cells in 25 mL medium were plated on a 100 mm dish and grown overnight in RPMI medium supplemented with 10% FCS and penicillin/streptomycin. Cells were scraped with Cell lifter (Fisher) into a conical tube and centrifuged for 5 minutes at 450×g. Cells were washed one time with 1 mL PBS (1,160×g for 3 minutes) and then resuspended in 0.25 mL Cell Lysis Buffer (CLB) (10 mM HEPES, pH 7.2, 10 mM NaCl, 1 mM KH2PO4, 5 mM NaHCO3, 1 mM CaCl2, 0.5 mM MgCl2, 5 mM EDTA) plus 0.1% Protease Inhibitor Cocktail (Sigma). Cells were allowed to swell 5 minutes at room temperature and then homogenized using Dounce homogenizer and Type A pestle (tight) 50 times on ice. After centrifugation at 2,200×g, for 5 minutes, 4° C., the supernatant was spun at 108,000×g, for 40 minutes at 4° C. This supernatant is T47D cytosol. Protein concentration is determined by BioRad DC assay.
300 μg T47D cytosol in 100 μL CLB was added in the well of a 96-well plate. […]

Assay [1] has as its system caspase cascade. The assay is described as follows: Activation of the caspase cascade and induction of apoptosis in cells (earlier Cai et al. applications). As to conditions: typically. The assay is classed as cell-based.
Assay [2] concerns caspase cascade. As to conditions: as described in Ser. No. 10/164,705 and 60/433,953; cited from earlier work.
Another assay concerns cyclin D1. The assay is described as follows: Realtime PCR of mRNA levels in compound-treated T47D cells. Format: cell-based. As to conditions: 5 μM, 18 h, versus DMSO, FIG. 2. How it is done: FIG. 2: The effect of 5-(3-chlorothiophen-2-yl)-3-(5-chloro-pyridin-2-yl)-[1,2,4]-oxadiazole on mRNA levels of genes of interest. T47D cells were treated for 18 h with 5 μM of 5-(3-chlorothiophen-2-yl)-3-(5-chloro-pyridin-2-yl)-[1,2,4]-oxadiazole or DMSO and total RNA was then isolated. mRNA levels of TGFbeta, p21, cyclin D1, IGF2R, and IGFBP3 were quantitated using realtime PCR as fold change of treatment/control.
For cDNA synthesis and quantitative PCR, total RNA was extracted using the TRIzol reagent (Invitrogen Corporation, Carlsbad, Calif.) according to the manufacturer's instructions. Total RNA was quantitated, denatured, and electrophoresed in an agarose-formaidehyde gei to determine integrity of total RNA. 2 μg of total RNA was then used to make cDNA by reverse transcription using the Retroscript cDNA synthesis kit (Ambion Austin, Tex.) according to the manufacturer's instructions. Quantitative PCR was done by Sybrgreen incorporation using the Quantitect kit (Qiagen, Valencia, Calif.) on the LightCycler (Roche Molecular Biochemicals, Mannheim, Germany) using standard conditions. Data was normalized against the housekeeping gene, cyclophilin. The cells transfected with cyclophilin as a control was normalized against glyceraldehyde phosphate dehydrogenase (GAPD).

Take `[3H]c1cc(-c2noc(-c3sccc3Cl)n2)cc([3H])c1N=[N+]=[N-]` [Example 3, 3-(3,5 -Ditritium-4-azidophenyl)-5-(3-chloro-thiophen-2-yl)-[1,2,4]-oxadiazole]: at GST-Tip47, the “Binding to GST-Tip47 immobilized on α-GST-Protein A-Sepharose” value was “binding to GST-Tip47”. At Tip47, the “Binding to immunoprecipitated Tip47 from cell lysates” value is recorded as “binding to immunoprecipitated Tip47”. The “Radiolabeled protein on 2-D gel autoradiography” value on Tail Interacting Protein is listed as “single radiolabeled spot”.
In the case of `[N-]=[N+]=Nc1ccc(-c2noc(-c3sccc3Cl)n2)cc1` [3-(4-Azidophenyl)-5-(3-chloro-thiophen-2-yl)-[1,2,4]-oxadiazole], in the assay on caspase cascade [1], the “Time to induction of apoptosis in cells upon binding to TIPRAIP” value lay in the range of 24 to 48 h. The “Activation of the caspase cascade and of apoptosis” value in the assay on caspase cascade [2] is “potent and highly efficacious activators of the caspase cascade”.
For `Clc1ccc(-c2noc(-c3sccc3Cl)n2)nc1` [compound A, 5-(3-chlorothiophen-2-yl)-3-(5-chloro-pyridin-2-yl)-[1,2,4]-oxadiazole], the “Gene expression profile: cyclin D1 mRNA level” value in the assay with cyclin D1 is listed as “down regulation of cyclin D1”.

Source of the values: patent publication US20050004005A1, “Methods of treating diseases responsive to Induction of Apoptosis” (priority 2003, published 2005).
